# Results from paper PMC4322365, “A Ligand-observed Mass Spectrometry Approach Integrated into the Fragment Based Lead Discovery Pipeline” (Scientific Reports, 2015).
# Several values for one entry are separate records, joined by “and”; a condition that tells them apart may be missing. Identical values can stand only once.
# Biological target: T1, NS5B (Hepatitis C virus genotype 1b, UniProt P26663)
# T1 construct: NS5B with a C-terminal 10-His tag was expressed in E. coli; 10-His (C); made in house; host or cells: E. coli
# Assay: SPR analysis (Biacore T200, immobilized NS5B)
# Type: binding
# Details: corrected response above 5 RU indicates positive binding
# Method: In order to determine the dissociation constant of each fragment ligand, we prepared calibration curves for the MS responses of ten fragments in a mixture (Figure S1) and measured the recovery rate of each fragment (Table S3), which were used to derive the actual concentrations of fragments bound to the target. Kd values were then calculated based on the measured concentrations of fragment ligands dissociated from the target (Table S3). […] Ligand efficiency (LE) values were then derived from Kd's as a measure to justify which fragments to further optimize and elaborate in the FBLD pipeline[46][47] (Figure 2A). To examine the accuracy of Kd measurement using this new approach, we first attempted to utilize ITC for binding affinity assessment. […] SPR was then implemented for Kd determination for these fragment hits. […] However, using the single point measurement method, we were still able to estimate Kd's for these fragment-target interactions to be all within the millimolar range and rank the order of their binding affinity according to corrected responses (Figure 2B). […] The overall consistency of affinity ranking and estimation between the two independent assays implied our new approach enabled reliable assessment of binding affinity, especially valuable for characterizing low-affinity fragments not amenable to conventional biophysical approaches.
# The SPR experiment was performed on a Biacore T200 optical biosensor (Biacore Life Sciences, GE Healthcare). Series S sensor chips CM5, NHS, EDC, ethanolamine HCl as well as sampling vials and caps were all obtained from Biacore. A solution of 1 × PBS with 5% DMSO was used as running buffer. NS5B protein at 50 μg/ml prepared in buffer of 10 mM sodium acetate (pH 5.5) was injected for immobilization which reached a level of 8000 RU. During each binding cycle, the fragment solution was injected for 1 min at a flow rate of 30 μL/min and dissociation was monitored for 300 s. Data were collected with the biosensor instrument thermo stated to 25°C. Raw data collected on an SPR biosensor were further processed to remove systematic artifacts stemming from nonspecific binding, signal drift, and bulk refractive index changes. Solvent correction and molecular weight adjustment were also applied in this study. All data processing and analysis was performed using the Biacore T200 Evaluation Software.
# T1 sequence (P26663 2420-3010): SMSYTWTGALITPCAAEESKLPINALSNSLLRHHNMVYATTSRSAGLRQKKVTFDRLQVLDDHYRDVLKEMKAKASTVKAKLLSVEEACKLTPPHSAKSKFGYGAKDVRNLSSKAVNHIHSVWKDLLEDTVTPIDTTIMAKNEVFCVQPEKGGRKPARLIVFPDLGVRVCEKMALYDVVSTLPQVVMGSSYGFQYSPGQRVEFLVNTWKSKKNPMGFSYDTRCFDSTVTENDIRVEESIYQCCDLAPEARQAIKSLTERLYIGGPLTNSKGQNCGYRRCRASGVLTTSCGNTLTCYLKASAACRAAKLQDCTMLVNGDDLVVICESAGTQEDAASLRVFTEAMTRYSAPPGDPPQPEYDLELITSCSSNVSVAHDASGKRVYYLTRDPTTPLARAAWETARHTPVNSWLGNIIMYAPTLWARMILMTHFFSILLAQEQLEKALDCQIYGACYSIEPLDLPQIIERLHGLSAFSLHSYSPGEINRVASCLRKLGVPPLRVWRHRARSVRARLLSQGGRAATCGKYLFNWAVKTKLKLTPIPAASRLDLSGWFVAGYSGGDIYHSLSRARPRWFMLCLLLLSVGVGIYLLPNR
row,SMILES,SPR Corr. response (RU)
1,Cc1nc2ccccc2nc1C [Fragment 339],12.2 RU
2,Oc1ccc(F)c(Cl)c1 [Fragment 85],30.9 RU
3,Oc1ccc(SC(F)(F)F)cc1 [Fragment 237],10.0 RU
4,Cn1c(=O)cc(O)c2ccccc21 [Fragment 130],18.4 RU
5,N#CCc1ccc(O)cc1 [Fragment 114],55.6 RU
6,Nc1ccc(C(F)(F)F)cn1 [Fragment 162],7.6 RU
7,O=C(O)c1ccc(C(F)(F)F)cc1 [Fragment 204],< 5 RU and 3.2 RU
8,Cc1ccc2oc(=O)ccc2c1 [Fragment 117],24.6 RU
9,Cc1cc(N)n(-c2ccccc2)n1 [Fragment 131],14.7 RU

# Same assay, conditions: threshold 5 RU
row,SMILES,SPR binding
1,N#CC(c1ccccc1)N1CCOCC1 (stereo not drawn) [Fragment 328],no binding
2,O=C(O)c1ccc(C(F)(F)F)cc1 [Fragment 204],no binding

# Biological target: T2, HCV RNA polymerase NS5B (Hepatitis C virus genotype 1b, UniProt P26663)
# T2 construct: NS5B with a C-terminal 10-His tag was expressed in E. coli; 10-His (C); made in house; host or cells: E. coli
# Assay: Ligand-observed MS primary screen of the 384-fragment mixture (ultrafiltration LC/MS)
# Type: binding
# Details: 384 fragments each 25 μM, NS5B 50 μM; two experimental replicates separated by a slash; S/N > 10 indicates positive hit
# Method: A two-stage fragment screening strategy based on the ligand-observed MS analysis was devised that involved a primary screen of 384 fragment as a whole followed by a secondary independent screen of fragment cocktails of less complexity. In the primary screen, a mixture of all 384 fragments was incubated with NS5B protein before the fragment-bound complexes were separated from excessive free fragments using ultrafiltration. […] Fragments dissociated from the target using 90% methanol in deionized water were subjected to LC-MS analysis and those showing MS intensity substantially higher than the negative control (protein-free incubation) were considered positive hits (Figure 1A). Although in our previous assay development we justified an S/N ratio of 2 to be the threshold for positive binding, here we raised the S/N threshold to 10 so as to retain the upmost strong binders given that low-affinity fragments are more inclined to nonspecific adsorption. Impressively, the high selectivity of high-resolution MS (HRMS) analysis enabled rapid screening of the 384-fragment mixture within 20-min analytical time, generating 20 preliminary hits with S/N above 10 (Figure 1B, full data sets in Table S1). It is noted that 20 compounds (5%) in this library are not amenable to our analysis, probably due to the limited sensitivity of the mass spectrometer used in this study or the intrinsically low ionization efficiency of these compounds. Nevertheless, these undetectable fragments were still included in the screening cocktail to maximize the complexity of multiple ligand interactions during incubation. To the best of our knowledge, such a high capacity in mixture screening has never been shown before for fragment libraries, and we anticipate the throughput can be easily boosted to screening >1000 fragments within half an hour using a state-of-the-art mass spectrometer.
# In the primary screening, a mixture of 384 fragments (each at a final concentration of 25 μM) and NS5B at 50 μM was prepared in the binding buffer of 20 mM MES (pH 6.5), 300 mM NaCl and 10% glycerol, and incubated for 40 min at 25°C. All fragments of the library were either purchased from Sigma or synthesized in our laboratory, and their structural diversity was summarized in Figure S4. The mixture was then filtered through an ultrafiltration membrane (50 KD MW cut-off) by centrifugation at 13000 g for 10 min at […]. The protein complexes bound with different fragments were washed twice with 10 mM ammonium acetate (pH 6.5) followed by centrifugation to remove the unbound fragments. The resulting solution of the complexes was transferred to a new centrifugal tube, and the ligands were dissociated from NS5B with 90% methanol in deionized water. The released ligands were then separated from the denatured protein by centrifugation at 13000 g for 10 min at 20°C. The supernatant containing the ligands was evaporated by a speed vacuum, reconstituted in 80% methanol, and analyzed by LC/MS. The protein-free control was prepared by using the binding buffer substitute for NS5B during incubation and it underwent the same process as the NS5B incubated sample. In the secondary screen, 384 fragments were divided into 7 cocktails, each consisting of 50 fragments except for the seventh cocktail of 84 fragments. Each cocktail was then incubated with NS5B in the binding buffer at the same final concentration as in the primary screen. […] Ultrafiltration and complex dissociation were performed as described earlier to obtain fragment ligands. Samples were all prepared in duplicate and analyzed separately.
# Aliquots of reconstituted ultrafiltrates were analyzed on a Waters Synapt G1 high-dfinition mass spectrometer (Milford, MA) equipped with a Waters Acquity UPLC system. UPLC separation was carried out on a Waters Acquity BEH C18 column (2.1 mm × 50 mm, 1.7 μm) at a flow rate of 200 μL/min, with the mobile phases of water/0.1% formic acid (A) and acetonitrile/0.1% formic acid (B). […]
# T2 sequence (P26663 2420-3010): as above
row,SMILES,S/N in the 1st screen
1,Cc1nc2ccccc2nc1C [Fragment 339],241.4 and 259.8
2,Oc1ccc(F)c(Cl)c1 [Fragment 85],27.9 and 29.7
3,N#CC(c1ccccc1)N1CCOCC1 (stereo not drawn) [Fragment 328],124.6 and 138.4
4,Oc1ccc(SC(F)(F)F)cc1 [Fragment 237],1027 and 1179
5,Cn1c(=O)cc(O)c2ccccc21 [Fragment 130],93.1 and 102.3
6,N#CCc1ccc(O)cc1 [Fragment 114],17.9 and 20.9
7,Nc1ccc(C(F)(F)F)cn1 [Fragment 162],2714 and 3280
8,O=C(O)c1ccc(C(F)(F)F)cc1 [Fragment 204],13.4 and 11.6
9,Cc1ccc2oc(=O)ccc2c1 [Fragment 117],55.6 and 46.8
10,Cc1cc(N)n(-c2ccccc2)n1 [Fragment 131],45.7 and 39.3

# Same assay, conditions: Figure 1A workflow example
SMILES,Binding,S/N
Cn1c(=O)cc(O)c2ccccc21 [Fragment 130],+ (Positive fragment binding is indicated by its S/N ratio > 10),93
Nc1ccc(C(F)(F)F)cn1 [Fragment 162],+ (Positive fragment binding is indicated by its S/N ratio > 10),
